Our source for the melting point values is patent US20180354921A1, “SUBSTITUTED OXADIAZOLES FOR COMBATING PHYTOPATHOGENIC FUNGI” (BASF SE, priority 2015, published 2018).

Take `O=C(Cc1ccccc1)Nc1ccc(-c2noc(C(F)(F)F)n2)cc1` [Ex-1, 2-phenyl-N-[4-[5-(trifluoromethyl)-1,2,4-oxadiazol-3-yl]phenyl]acetamide]: the melting point amounted to 198 °C.
